Test results as given in patent US10329231B2, “Epoxy compound, method for producing the same, epoxy resin composition, and cured product thereof” (DIC Corporation, priority 2012, dated 2019).

What was measured:
Type in all cases: physicochemical
[1] = Solubility in hexane during purification; settings: reflux then room temperature
Method: Oxidative coupling reaction and solvent extraction were performed under the same conditions as in Example 1. Ethyl acetate was distilled off under vacuum, and then hexane was added to the resultant crude product. The mixture was transferred to a SUS container provided with a thermometer, a stirrer, and Dean-Stark trap, and hexane was further added so that the total amount was 5 L, followed by reflux. The hexane solution was cooled to room temperature, and then insoluble substances were filtered off. The solvent of the filtrate was distilled off under vacuum, and the residue was dried at 110° C. for 5 hours to produce 2 g (yield 3%) of a solid containing [1,1′-binaphthalene]-2,2′,7,7′-tetraol as a main component.

[2] = Melt viscosity at 150° C., ASTM D4287 (ICI viscometer method); design: Melt viscosity at 150° C. of epoxy resin: unit not given here; settings: for Melt viscosity at 150° C. of epoxy resin: Table 1
Method: 1) Melt viscosity at 150° C.: measured with an apparatus below according to ASTM D4287.
Apparatus name: MODEL CV-1S manufactured by Codex Corporation

[3] = Softening point, ball & ring (B & R) method, JIS K7234; settings: glycerin heating medium
From the text: 2) Method for measuring softening point: measured by a ball & ring (B & R) method using glycerin as a heating medium according to JIS K7234.
Apparatus name: ASP-M2 model manufactured by Meitec Corporation

Row | solubility in hexane [1] | Melt viscosity at 150° C. of epoxy resin ([2]; 150° C.) | melt viscosity ([2]; ICI viscometer method, measurement temperature 150° C.) | Softening point of epoxy resin [3] | 150° C. melt viscosity ([2]; 150° C., data given with the product description) | Structure (SMILES)
1 | low solubility |  |  |  |  | Oc1ccc2ccc(O)c(-c3c(O)ccc4ccc(O)cc34)c2c1 [1,1′-Binaphthalene]-2,2′,7,7′-tetraol, [1,1′-binaphthalene]-2,2′,7,7′-tetraol]
2 |  | 1.1 | 1.1 dPa·s | 61 °C |  | c1cc2ccc(OCC3CO3)c(-c3c(OCC4CO4)ccc4ccc(OCC5CO5)cc34)c2cc1OCC1CO1 (stereo not shown) [Example A-1, 2,2′,7,7′-tetraglycidyloxy-[1,1′-binaphthalene]]
3 |  | 4.5 |  | 91 °C | 4.5 ps | c1cc2ccc(OCC3CO3)c(Cc3c(OCC4CO4)ccc4ccc(OCC5CO5)cc34)c2cc1OCC1CO1 (stereo not shown) [Example A-2, reference compound]
